“Also recorded” adds a separate entry of the source.
Experiments:
[1] = in vivo; cited from earlier work
WT DJ-1 = WT DJ-1 (Homo sapiens, UniProt Q99497); format: binding
DJ-1 [2] = target: T1, DJ-1 (Homo sapiens, UniProt Q99497); format: binding
DJ-1 [3] = target: T1, DJ-1; format: binding; remark: listed apart in the source
[4] = target: recombinant human WT SOD1 (Homo sapiens, UniProt P00441); format: binding
Chain of recombinant human WT SOD1 (P00441 2-154): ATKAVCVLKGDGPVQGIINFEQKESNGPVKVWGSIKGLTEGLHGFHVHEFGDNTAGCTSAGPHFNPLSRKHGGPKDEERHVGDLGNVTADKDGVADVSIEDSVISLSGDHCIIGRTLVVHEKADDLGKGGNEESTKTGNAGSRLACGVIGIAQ

Chain of WT DJ-1 (Q99497 whole entry): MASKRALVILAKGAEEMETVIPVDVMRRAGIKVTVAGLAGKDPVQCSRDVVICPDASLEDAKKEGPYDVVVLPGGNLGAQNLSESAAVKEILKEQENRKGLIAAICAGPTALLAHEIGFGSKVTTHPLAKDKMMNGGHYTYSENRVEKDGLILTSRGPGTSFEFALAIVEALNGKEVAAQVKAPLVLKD
T1 sequence (Q99497 whole entry): as above

Compound | LD100 [1] | covalent dimerization of DJ-1 (WT DJ-1) | denaturation temperature of DJ-1 (thermal stability) (DJ-1 [2]) | site of covalent linkage in DJ-1 dimer (DJ-1 [3]) | covalent dimerization of SOD1 (change in mass of covalently linked SOD1 dimers) [4] | extent of cross-linking of SOD1 monomers [4]
CC(C)C[C@H](NC(=O)[C@H](Cc1ccccc1)NC(=O)c1cnccn1)B(O)O [bortezomib] | < 0.25 mg/kg | – | – | – | – | –
NC(=O)NN=C1CSSC1 [NSC72268] | – | identified as a specific DJ-1 covalent dimerizer; also recorded: specific covalent dimerizer of DJ-1 | increase the measured denaturation temperature of DJ-1 relative to untreated DJ-1 | – | – | –
[O-][S+]1CCCCS1 (stereo not drawn) [NSC56224, 1-oxo-1,2-dithiane] | – | identified as a covalent dimerizer of DJ-1 | increase the measured denaturation temperature of DJ-1 relative to untreated DJ-1 | covalently linked DJ-1 dimers at Cys53; also recorded: two trypsin digest fragments of DJ-1 containing Cys53 (underlined) linked by NSC56224 | capable of covalently dimerizing SOD1 | able to cross-link the majority of SOD1 monomers in the sample
OCC1(CO)CSSC1 [1,2-dithiolane-4,4-dimethanol] | – | – | – | – | capable of covalently dimerizing SOD1 | –
